3 molecules from article PMC6847993 (Drug Design, Development and Therapy, 2019) can be followed below.

The assay deals with XLF (Homo sapiens, UniProt Q9H9Q4). The assay can be described thus: Thermoshift assay of XLF stability in cells. Type of assay: cell-based.
Chain of XLF (Q9H9Q4 whole entry): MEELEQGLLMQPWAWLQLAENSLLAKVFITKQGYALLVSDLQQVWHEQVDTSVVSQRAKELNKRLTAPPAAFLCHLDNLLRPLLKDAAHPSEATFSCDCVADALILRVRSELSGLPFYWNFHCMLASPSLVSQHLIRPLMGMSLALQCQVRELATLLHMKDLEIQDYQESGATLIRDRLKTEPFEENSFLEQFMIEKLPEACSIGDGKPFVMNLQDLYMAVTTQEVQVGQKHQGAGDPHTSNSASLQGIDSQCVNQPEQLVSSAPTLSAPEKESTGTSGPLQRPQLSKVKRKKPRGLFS
As for `COc1cc(O)cc(CCc2ccc(O)c(OC)c2)c1` [Gigantol, gigantol], the “Interaction with XLF (XLF stability)” value is listed as “interacted with XLF”. As for `Oc1ccc(/C=C/c2cc(O)cc(O)c2)cc1` [resveratrol], the entry is “interacted with XLF”; as for `CC[C@]1(O)C[C@H]2CN(CCc3c([nH]c4ccccc34)[C@@](C(=O)OC)(c3cc4c(cc3OC)N(C=O)[C@H]3[C@@](O)(C(=O)OC)[C@H](OC(C)=O)[C@]5(CC)C=CCN6CC[C@]43[C@@H]65)C2)C1` [vincristine], “interacted with XLF”.
